# Article PMC3573878 (Structure (London, England : 1993), 2012)
# Biological target: ex-LdtMt2 (LdtMt2; MT2594; product of gene Rv2518c) (Mycobacterium tuberculosis, UniProt O53223)
# Test: isothermal titration calorimetry, single-site model
# Format: binding
smiles,measurement,value
C[C@@H](O)[C@H]1C(=O)N2C(C(=O)O)=C(SCCN=CN)C[C@H]12 [imipenem],Kd,0.0548 ± 0.0088 µM
